Tests used:
[1] = molecular target: PDE3 from human platelets (Homo sapiens, UniProt Q14432); assay: PDE3 enzyme assay; type: biochemical
[2] = tested on: conscious ferret; assay: Emesis and behavioral changes in conscious ferret; type: in vivo
Method: The conscious ferret model has been used to investigate anti-inflammatory, emetic and behavioral effects of PDE4 inhibitors when administered by the oral (p.o.) route. From these experiments, a therapeutic index (TI) for each PDE4 inhibitor may be determined. The TI has been calculated by dividing the threshold dose for causing emetic episodes and behavioral changes by the anti-inflammatory dose (dose that causes 50% inhibition of the LPS-induced neutrophilia).
PDE4 inhibitors were administered orally (p.o.), at doses initially of […], but subsequently up to 30 mg/kg in order to establish whether the TI was 10 or higher, and/or at lower doses to establish the minimum dose to cause 50% inhibition of neutrophilia. Ferrets were fasted overnight but allowed free access to water. The animals were orally dosed with vehicle or PDE4 inhibitor using a 15 cm dosing needle that was passed down the back of the throat into the oesophagus. After dosing, the animals were returned to holding cages fitted with Perspex doors to allow observation, and given free access to water. After dosing, the animals were constantly observed and any emesis or behavioral changes were recorded. The animals were allowed access to food 60 to 90 minutes after p.o. dosing.
Thirty minutes after p.o. dosing with compound or vehicle control, the ferrets were placed into sealed Perspex containers and exposed to an aerosol of LPS (100 μg/ml) for 10 minutes. Aerosols of LPS were generated by a nebulizer (DeVilbiss, USA) and this was directed into the Perspex exposure chamber. Following a 10 minute exposure period, the animals were returned to the holding cages and allowed free access to water, and at a later stage, food. Observation continued for a period of at least 2.5 hours post p.o. dosing and emetic episodes and behavioral changes were recorded.
2. Emetic episodes—the number of vomits and retches were counted.
3. Behavioral changes—the following behavioral effects were noted: salivation, panting, mouth clawing, flattened posture, ataxia, arched back and backward walking Any behavioral changes were semi-quantified by applying a severity rating (mild, moderate or severe).
4. The TI was calculated as the highest dose found to not cause emetic episodes divided by the lowest dose found to inhibit pulmonary neutrophilia by 50% or more.
Numbers in parentheses refer to the number of animals that responded. The numbers of animals in each group range from 4 to 22.
From these experiments, a therapeutic index (TI) was determined for each compound by dividing the threshold dose for inducing emetic episodes by the ED50 value for inhibiting the pulmonary neutrophilia.

PDE3 from human platelets, sequence (Q14432 whole entry): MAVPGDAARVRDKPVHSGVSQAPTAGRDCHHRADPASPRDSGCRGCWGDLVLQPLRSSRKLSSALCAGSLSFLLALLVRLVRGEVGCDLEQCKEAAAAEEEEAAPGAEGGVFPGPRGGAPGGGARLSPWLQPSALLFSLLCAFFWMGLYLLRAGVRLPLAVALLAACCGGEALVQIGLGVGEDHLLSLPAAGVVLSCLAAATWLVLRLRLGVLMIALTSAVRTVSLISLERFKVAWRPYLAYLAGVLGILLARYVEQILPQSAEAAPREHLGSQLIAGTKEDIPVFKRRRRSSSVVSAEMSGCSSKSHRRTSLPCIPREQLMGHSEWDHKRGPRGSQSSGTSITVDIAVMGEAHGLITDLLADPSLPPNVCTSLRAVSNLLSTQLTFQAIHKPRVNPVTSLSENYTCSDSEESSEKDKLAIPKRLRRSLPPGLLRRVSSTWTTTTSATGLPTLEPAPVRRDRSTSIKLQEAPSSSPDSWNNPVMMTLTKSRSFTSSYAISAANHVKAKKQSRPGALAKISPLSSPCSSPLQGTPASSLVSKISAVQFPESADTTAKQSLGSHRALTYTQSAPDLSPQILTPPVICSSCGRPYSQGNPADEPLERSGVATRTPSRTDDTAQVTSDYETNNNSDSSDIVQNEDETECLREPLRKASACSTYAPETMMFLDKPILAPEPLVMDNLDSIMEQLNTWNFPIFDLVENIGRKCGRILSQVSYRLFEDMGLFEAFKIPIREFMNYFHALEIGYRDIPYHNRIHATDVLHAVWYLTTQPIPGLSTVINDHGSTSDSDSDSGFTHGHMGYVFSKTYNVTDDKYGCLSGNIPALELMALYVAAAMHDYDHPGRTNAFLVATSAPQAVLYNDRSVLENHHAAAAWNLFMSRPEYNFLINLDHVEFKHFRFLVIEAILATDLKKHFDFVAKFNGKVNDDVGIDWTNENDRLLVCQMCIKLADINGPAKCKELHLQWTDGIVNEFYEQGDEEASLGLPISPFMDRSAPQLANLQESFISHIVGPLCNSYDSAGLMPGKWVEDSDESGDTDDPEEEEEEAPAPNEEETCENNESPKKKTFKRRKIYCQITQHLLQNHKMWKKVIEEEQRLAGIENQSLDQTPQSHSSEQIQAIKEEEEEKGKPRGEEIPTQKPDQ

## CCOc1cc(C(CS(C)(=O)=O)N2C(=O)c3cccc(NC(C)=O)c3C2=O)ccc1OC (single isomer, unassigned; (+)) [Compound A, (+)-2-[1-(3-ethoxy-4-methoxyphenyl)-2-methylsulfonylethyl]-4-acetylaminoisoindoline-1,3-dione]
[1]; from Table 1 data
  PDE Specificity Ratio PDE4/PDE3: >1200 fold
[1]; read-out: PDE3 (% inhib at 10 μM)
  inhibition at 10 µM: 20%
[2]; conscious ferret, p.o.
  Threshold emetic dose: 10 mg/kg
[2]; ferret, 0.1 mg/kg p.o.
  Ataxia, severity: None
  Backward walking, number of animals that responded: (3/5)
  Backward walking, severity: Mild
  Flattened posture, number of animals that responded: (2/5)
  Flattened posture, severity: Mild
  Lip licking, number of animals that responded: (4/5)
  Lip licking, severity: Mild
  Mouth clawing, severity: None
  Panting, severity: None
  Retches, severity: None
  Salivation, severity: None
  Vomits, severity: None
[2]; ferret, 0.3 mg/kg p.o.
  Ataxia, severity: None
  Backward walking, number of animals that responded: (4/6)
  Backward walking, severity: Mild
  Flattened posture, number of animals that responded: (2/6)
  Flattened posture, severity: Mild
  Lip licking, number of animals that responded: (3/6)
  Lip licking, severity: Mild
  Mouth clawing, severity: None
  Panting, severity: None
  Retches, severity: None
  Salivation, severity: None
  Vomits, severity: None
[2]; ferret, 1 mg/kg
  emetic episodes at anti-inflammatory dose: no emetic episodes
[2]; ferret, 1.0 mg/kg p.o.
  Ataxia, severity: None
  Backward walking, number of animals that responded: (4/6)
  Backward walking, severity: Mild
  Flattened posture, number of animals that responded: (2/6)
  Flattened posture, severity: Mild
  Lip licking, number of animals that responded: (6/6)
  Lip licking, severity: Mild
  Mouth clawing, severity: None
  Panting, severity: None
  Retches, severity: None
  Salivation, severity: None
  Vomits, severity: None
[2]; ferret, 3.0 mg/kg p.o.
  Ataxia, severity: None
  Backward walking, number of animals that responded: (5/8)
  Backward walking, severity: Moderate
  Flattened posture, number of animals that responded: (7/8)
  Flattened posture, severity: Marked
  Lip licking, number of animals that responded: (2/8)
  Lip licking, severity: Mild
  Mouth clawing, number of animals that responded: (1/8)
  Mouth clawing, severity: Mild
  Panting, severity: None
  Retches, severity: None
  Salivation, severity: None
  Vomits, severity: None
[2]; ferret, 10 mg/kg p.o.
  Ataxia, severity: None
  Backward walking, number of animals that responded: (6/6)
  Backward walking, severity: Marked
  Flattened posture, number of animals that responded: (6/6)
  Flattened posture, severity: Marked
  Lip licking, number of animals that responded: (5/6)
  Lip licking, severity: Moderate
  Mouth clawing, number of animals that responded: (1/6)
  Mouth clawing, severity: Mild
  Panting, severity: None
  Retches, severity: Mild
  Salivation, number of animals that responded: 1/6
  Salivation, severity: Mild
  Vomits, severity: None
  emesis: no frank emesis
  salivation and behavioral changes, score: mild or moderate
[2]; ferret, 10 mg/kg p.o., 10 mg/kg
  Retches, number of animals that responded: 2/6 and (2/6)
[2]; ferret, 30 mg/kg p.o.
  Ataxia, number of animals that responded: (3/4)
  Ataxia, severity: Mild
  Backward walking, number of animals that responded: (2/4)
  Backward walking, severity: Mild
  Flattened posture, number of animals that responded: (4/4)
  Flattened posture, severity: Marked
  Lip licking, number of animals that responded: (4/4)
  Lip licking, severity: Moderate
  Mouth clawing, number of animals that responded: (4/4)
  Mouth clawing, severity: Marked
  Panting, number of animals that responded: (1/4)
  Panting, severity: Mild
  Retches, number of animals that responded: (3/4)
  Retches, severity: Marked
  Salivation, number of animals that responded: (3/4)
  Salivation, severity: Moderate
  Vomits, number of animals that responded: (3/4)
  Vomits, severity: Moderate
  behavioral changes: pronounced
  emesis, animals affected: 3/4
  emesis, severity: moderate to marked
[2]; ferret, 0.1-3 mg/kg p.o.
  behavioral changes (flattened posture, lip licking, backward walking), classification: mild
  emetic episodes (retching and vomiting): no emetic episodes
[2]; threshold emetic dose divided by ED50 for pulmonary neutrophilia, ferret
  Therapeutic index: 12

From patent US8629173B2, “Solid forms comprising (+)-2-[1-(3-ethoxy-4-methoxyphenyl)-2-methylsulfonylethyl]-4-acetylaminoisoindoline-1,3-dione, compositions thereof, and uses thereof” (Celgene Corporation, priority 2002, dated 2014)
